Assay results: US7319152B2 (Wyeth, priority 2005, dated 2008)
Values joined by “and” are separate entries in the source; they are usually repeats but may differ in a detail not shown here. Equal entries are not always repeated.

Assays:
[1] = tested on: rat uterine decidualization; assay: Rat decidualization assay; assay type: in vivo; conditions: for Estimated average EC50 for uterine wet weight: ovariectomized Sprague-Dawley rats, s.c., average of dose-response curves
Procedure: The animals were treated once daily for seven days. […] In all studies, a control group receiving vehicle was included. […] The contralateral horn was not scratched and served as an unstimulated control. Approximately 24 hoursfollowing the final treatment, rats were sacrificed by CO2 asphyxiation and body weight measured. Uteri were removed and trimmed of fat. Decidualized (D-horn) and control (C-horn) uterine horns were weighed separately.
Body weight: Mean total animal body weight (default-kg)
D-horn: Wet weight of decidualized uterine horn (default-kg)
C-horn: Wet weight of control uterine horn (default-kg)
Decidual response: [(D−C)/C]×100%

PR = biological target: T1, PR (Homo sapiens, UniProt P06401); assay: T47D cell alkaline phosphatase assay; assay type: cell-based; conditions: for IC50: read-out: Alk. Phos. IC50
T1 construct: alkaline phosphatase activity in T47D cells; endogenous in cells; host or cells: T47D cells
T1 sequence (P06401 1-933): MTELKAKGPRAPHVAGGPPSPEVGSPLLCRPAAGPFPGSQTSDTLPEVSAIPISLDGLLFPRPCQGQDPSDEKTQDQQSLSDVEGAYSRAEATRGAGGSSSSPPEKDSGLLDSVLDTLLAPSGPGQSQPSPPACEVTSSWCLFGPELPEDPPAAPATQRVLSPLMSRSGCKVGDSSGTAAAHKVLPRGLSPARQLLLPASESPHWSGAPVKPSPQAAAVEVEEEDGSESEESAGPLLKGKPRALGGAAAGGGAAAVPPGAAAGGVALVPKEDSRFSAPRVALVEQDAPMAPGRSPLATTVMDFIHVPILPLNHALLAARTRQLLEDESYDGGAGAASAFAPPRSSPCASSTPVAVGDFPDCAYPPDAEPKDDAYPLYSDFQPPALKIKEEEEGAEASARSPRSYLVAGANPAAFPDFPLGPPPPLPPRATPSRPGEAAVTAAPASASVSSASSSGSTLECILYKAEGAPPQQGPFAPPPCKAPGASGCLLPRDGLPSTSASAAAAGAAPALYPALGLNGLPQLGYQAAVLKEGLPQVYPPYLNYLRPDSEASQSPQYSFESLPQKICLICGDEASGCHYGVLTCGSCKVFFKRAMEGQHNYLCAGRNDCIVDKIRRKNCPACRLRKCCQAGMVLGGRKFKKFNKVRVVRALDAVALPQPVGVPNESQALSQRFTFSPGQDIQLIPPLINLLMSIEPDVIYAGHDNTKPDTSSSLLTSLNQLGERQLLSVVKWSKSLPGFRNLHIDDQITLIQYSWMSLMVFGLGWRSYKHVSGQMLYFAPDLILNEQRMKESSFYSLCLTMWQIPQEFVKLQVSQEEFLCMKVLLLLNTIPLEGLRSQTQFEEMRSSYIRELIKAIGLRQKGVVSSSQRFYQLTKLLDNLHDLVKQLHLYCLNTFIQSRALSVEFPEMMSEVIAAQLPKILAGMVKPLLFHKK
Procedure: (a) Purpose: To identify progestins or antiprogestins by determining a compound's effect on alkaline phosphatase activity in T47D cells. […] Cell Culture and Treatment • Frozen T47D cells were thawed in a 37° C. water bath and diluted to 280,000 cells/ml in culture medium. To each well in a 96-well plate (Falcon, Becton Dickinson Labware), 180 ? L of diluted cell suspension was added. Twenty ? L of reference or test compounds diluted in the culture medium was then added to each well. […] The cells were incubated at 37° C. in a 5% CO2humidified atmosphere for 24 hours. • Note: For high throughput screening, one concentration of each compound was tested at 0.3 mg/ml. […] Alkaline Phosphatase Enzyme Assay • At the end of treatment, the medium was removed from the plate. Fifty ? L of assay buffer I was added to each well. The plates were shaken in a titer plate shaker for 15 minutes. Then 150 ? L of assay buffer II was added to each well. […] Square root-transformed data were used for analysis of variance and nonlinear dose response curve fitting for both agonist and antagonist modes. Huber weighting was used to downweight the effects of outliers. EC50 or IC50 values were calculated from the retransformed values. JMP software (SAS Institute, Inc.) was used for both one-way analysis of variance and non-linear dose response analyses in both single dose and dose response studies.

IC50 (PR)	further results	SMILES
	Estimated average EC50 for uterine wet weight [1]: 0.10 mg/kg, s.c.	C#C[C@]1(O)CC[C@H]2[C@@H]3CCC4=CC(=O)CC[C@@H]4[C@H]3C(=C)C[C@@]21CC [3-Ketodesogestrel]
	EC50 (PR; T47D cells, agonist mode, read-out: Alk. Phos. EC50): 10 nM	Cn1c(C#N)ccc1-c1ccc2c(c1)C(C)(C)CC2=O [Example 3, 5-(3,3-dimethyl-1-oxo-2,3-dihydro-1H-inden-5-yl)-1-methyl-1H-pyrrole-2-carbonitrile]
115 nM		CCC(=O)c1ccc(-c2ccc(C#N)n2C)cc1 [Example 9, 1-methyl-5-(4-propionylphenyl)-1H-pyrrole-2-carbonitrile]
266 nM		Cn1c(C#N)ccc1-c1ccc(C(=O)c2cccs2)cc1 [Example 10, 1-methyl-5-[4-(thien-2-ylcarbonyl)phenyl]-1H-pyrrole-2-carbonitrile]
300 nM		Cn1c(C#N)ccc1-c1ccc(C(=O)c2ccccc2)cc1 [Example 11, 5-(4-benzoylphenyl)-1-methyl-1H-pyrrole-2-carbonitrile]
27.5 nM		Cn1c(C#N)ccc1-c1ccc2c(c1)CCCC2=O [Example 13, 1-methyl-5-(5-oxo-5,6,7,8-tetrahydronaphthalen-2-yl)-1H-pyrrole-2-carbonitrile]
200 nM		CC1(C)CC(=O)c2ccc(-c3ccc(Cl)cc3)cc21 [Example 21, 5-(4-chlorophenyl)-3,3-dimethylindan-1-one]
877 nM		Cc1ccc(-c2ccc3c(c2)C(C)(C)CC3=O)cc1 [Example 26, 3,3-dimethyl-5-(4-methylphenyl)indan-1-one]
66.3 nM		CC1(C)CC(=O)c2ccc(-c3cccc(Cl)c3)cc21 [Example 28, 5-(3-chlorophenyl)-3,3-dimethylindan-1-one]
225 nM		Cc1cccc(-c2ccc3c(c2)C(C)(C)CC3=O)c1 [Example 29, 3,3-dimethyl-5-(3-methylphenyl)indan-1-one]
737 nM		CC1(C)CC(=O)c2ccc(-c3ccccc3Cl)cc21 [Example 32, 5-(2-chlorophenyl)-3,3-dimethylindan-1-one]
632 nM		CC1(C)CC(=O)c2ccc(-c3cc(Cl)ccc3Cl)cc21 [Example 35, 5-(2,5-dichlorophenyl)-3,3-dimethylindan-1-one]
349 nM		CC1(C)CC(=O)c2ccc(-c3ccc(Cl)cc3Cl)cc21 [Example 36, 5-(2,4-dichlorophenyl)-3,3-dimethylindan-1-one]
300 nM		CC1(C)CC(=O)c2ccc(-c3ccccc3)cc21 [Example 37, 3,3-dimethyl-5-phenylindan-1-one]
100 nM		CC1(C)CC(=O)c2ccc(-c3ccc(F)c(Cl)c3)cc21 [Example 38, 5-(3-chloro-4-fluorophenyl)-3,3-dimethylindan-1-one]
	Estimated average EC50 for uterine wet weight [1]: 0.10 mg/kg, s.c.	C#C[C@]1(O)CC[C@H]2[C@@H]3CCC4=CC(=O)CC[C@@H]4[C@H]3CC[C@@]21CC [Levonorgestrel]
	Estimated IC50 for uterine weight ([1]; ovariectomized rats, p.o., with EC50 dose of progesterone (5.6 mg/kg), individual studies): 0.21 mg/kg, p.o. and 0.14 mg/kg, p.o.	CC#C[C@]1(O)CC[C@H]2[C@@H]3CCC4=CC(=O)CCC4=C3[C@@H](c3ccc(N(C)C)cc3)C[C@@]21C [RU486]
